Reference: US8663616B2, “Enzymatic peracid generation for use in oral care products” (E I du Pont de Nemours and Company, priority 2010, dated 2014)

Columns and labels:
[1] = Bleaching of coffee-tea stained bovine enamel with EZ-1 and various ester substrates (Example 15)
Protocol: The optimal conditions used for the generation of peracetic acid with each substrate were derived from the studies in Example 14 and are listed below as follows:
Bovine enamel incisors were prepared as indicated in Example 1. The stained enamel blocks were placed in a 24 well plate with the dentin side facing down and hydrated overnight in phosphate buffer, pH 7.2. Prior to treatment, a color measurement of each tooth was performed using a Konica-Minolta 2600d spectrophotometer and whiteness index was calculated as specified in Example 1.
Each enzyme solution was prepared in a 1.5-mL microfuge tube (Eppendorf, #2243102-1) and 1 mL of the solution was immediately transferred to the 24 well plate containing the pre-hydrated teeth. The control samples consisted of 100 mM phosphate buffer, pH 7.2 and 9% H2O2 in 100 mM citrate/phosphate buffer, pH 5.3. The teeth were incubated at room temperature for 30 minutes, removed, rinsed with 100 mM phosphate, pH 7.2 and a color measurement was taken. The teeth were placed back into the 24 well plate at which time fresh enzyme solutions were prepared and added to each well. This process was repeated for a total of 3 whitening treatments; 30 min per treatment (Table 22).

[2] = Peracetic acid vs hydrogen peroxide bleaching of coffee/tea stained bovine enamel (whiteness index); conditions: for ΔWI: 0 to 61 min; for Whiteness Index 0 min: before exposure
Description: This example describes the use of peracetic acid to achieve a bleaching effect on model stained enamel surfaces. Bovine enamel incisors were obtained from SE Dental (Baton Rouge, La.). Teeth were sectioned and cut into enamel slabs approximately 7 mm on each side using a DREMEL® rotary saw (Robert Bosch Power Tool Corporation; Chicago, Ill.) with a diamond blade. The enamel slabs were cleaned and lightly polished to remove surface debris. The enamel was pretreated with a mixture of coffee and tea for 1-5 days in order to stain to a color similar to human stained teeth.
Each enamel block was hydrated in water for at least 1 hr prior to use. Color measurements for the substrate were obtained prior to exposure to test solutions. Solutions of peracetic acid were prepared from a 32% stock in 500 mM sodium phosphate buffer, pH 7.2. A solution of 2.5% H2O2 was also prepared in the same buffer. Multiple enamel blocks were exposed to each solution for 1 min followed by additional exposures of 5 min, 10 min, 15 min and 30 min. For each treatment, a fresh solution of peracetic acid and hydrogen peroxide was prepared from the stock solutions. After each treatment the enamel blocks were rinsed with water and measured with a Konica-Minolta 2600d spectrophotometer.
(§1) Whiteness index (WI) is defined by the International Commission on Illumination (CIE) and described in ASTM method E313-05 and calculated for D65/10 incident light as: WI=Y+800*(0.3138−x)+1700*(0.3310−y) Where Y, x, and y are the luminance factor and the chromaticity coordinates respectively of the enamel substrate.

[3] = Peracetic acid in treatment solution by ABTS absorbance (Example 12); format: biochemical; conditions: 1:100 dilution into ABTS reagent
Description: (§2) The purpose of this example is to show the tooth bleaching effect of enzymatic generated peracetic acid in a one-step application and compare to the performance achieved with chemically derived peracetic acid. Two methods were developed to use a perhydrolytic enzyme (CE-7 perhydrolase) system to achieve the target level of tooth bleaching. The first method (referred to herein as the “one-step approach”) comprises combining different amounts of at least one CE-7 perhydrolase with triacetin (an example of a suitable ester substrate) and hydrogen peroxide to generate peracetic acid using model stained enamel substrates. Bovine enamel incisors were prepared as indicated in Example 1. Stained bovine enamel blocks were hydrated in water at least 1 hr prior to use to stabilize the color of the substrate. The color for each enamel block was measured after hydration prior to the start of the experiment. Three enamel samples were treated for each solution type. The solutions used were a buffer only control, 2.5% H2O2, 1% peracetic acid, a perhydrolase composition including 10 μM EZ-1 (C277S; SEQ ID NO: 424), 100 mM triacetin and 250 mM H2O2 and a no enzyme control of 100 mM triacetin and 250 mM H2O2. All solutions were prepared in 500 mM sodium phosphate buffer, pH 7.2. The high buffer strength was necessary to maintain the 1% peracetic acid solution at neutral pH. All solutions were freshly prepared for each treatment point. The enzyme-triacetin-H2O2 combination and triacetin-H2O2 combination was mixed immediately before enamel exposure. After each treatment step, each enamel block was rinsed with water and a color measurement was obtained. A total treatment time of 61 min was used with durations of exposure of 1 min, 5 min, 10 min, 15 min and 30 min. The concentration of peracetic acid in solution after the 1 min, 10 min and 30 min treatments was evaluated by colorimetric detection of ABTS oxidation.
Determination of the peracetic acid (PAA) concentration in the reaction mixtures by a colorimetric method was performed according to the method described by Dinu et. al. (supra). A reagent solution of 1 mM 2,2′-azino-bis(3-ethylbenzothiazoline)-6-sulfonate (ABTS), 50 μM potassium iodide in 125 mM potassium citrate buffer at pH 5.0 was prepared. […] The solution was analyzed for absorbance at 405 nm using a Microplate reader. A comparison of relative amounts of peracetic acid in solution was determined by comparing absorbance values directly.

[4] = One-step bleaching of stained bovine enamel with perhydrolase system (Example 12)
Description: as §1, §2

OO [Enzyme H2O2, hydrogen peroxide]
Whiteness Index Treatment 1 ([1]; after 1 x 30 min treatment): −129.6
Whiteness Index Treatment 2 ([1]; after 2 x 30 min treatments): −117.6
Whiteness Index Treatment 3 ([1]; after 3 x 30 min treatments): −115.2
Whiteness Index Treatment 0 ([1]; before treatment, 40 ppm EZ-1, 100 mM substrate, H2O2 100 mM (TA), 360 mM (PGDA, SOC), 60 mM (GPA), pH 7.2, control 9% H2O2 pH 5.3 without enzyme): −167.6
ΔWI ([1]; treatment 0 to treatment 3): 52.4
ΔWI ([2]; Table 1, 2.5% H2O2 or 0.5% PAA): 42.6
Whiteness Index 1 min ([2]; Table 1, 2.5% H2O2 or 0.5% PAA, cumulative exposure 1 min): −127.2
Whiteness Index 6 min ([2]; Table 1, 2.5% H2O2 or 0.5% PAA, cumulative exposure 6 min): −124.5
Whiteness Index 16 min ([2]; Table 1, 2.5% H2O2 or 0.5% PAA, cumulative exposure 16 min): −118.4
Whiteness Index 31 min ([2]; Table 1, 2.5% H2O2 or 0.5% PAA, cumulative exposure 31 min): −103.6
Whiteness Index 61 min ([2]; Table 1, 2.5% H2O2 or 0.5% PAA, cumulative exposure 61 min): −84.9
Whiteness Index 0 min ([2]; Table 1, 2.5% H2O2 or 0.5% PAA, 500 mM sodium phosphate pH 7.2): −127.5
Whiteness Index 1 min ([2]; Table 2, 2.5% H2O2): −92.6
Whiteness Index 6 min ([2]; Table 2, 2.5% H2O2): −86.4
Whiteness Index 16 min ([2]; Table 2, 2.5% H2O2): −79.5
Whiteness Index 31 min ([2]; Table 2, 2.5% H2O2): −68.3
Whiteness Index 61 min ([2]; Table 2, 2.5% H2O2): −56.4
ΔWI ([2]; Table 2, 2.5% H2O2): 37.4
Whiteness Index 0 min ([2]; Table 2, 2.5% H2O2): −93.8
Absorbance 405 nm, 1 min ([3]; peracetic acid at end of 1 min treatment): 0.056
Absorbance 405 nm, 10 min ([3]; peracetic acid at end of 10 min treatment): 0.060
Absorbance 405 nm, 30 min ([3]; peracetic acid at end of 30 min treatment): 0.054
Whiteness Index 0 min ([4]; before treatment, 2.5% H2O2, 100 mM triacetin/250 mM H2O2, 1% PAA, 10 μM EZ-1/100 mM triacetin/250 mM H2O2, pH 7.2): −149.3
ΔWI ([4]; one-step, 0 to 61 min): 46.2
Whiteness Index 1 min ([4]; one-step, cumulative treatment 1 min): −146.3
Whiteness Index 6 min ([4]; one-step, cumulative treatment 6 min): −142.5
Whiteness Index 16 min ([4]; one-step, cumulative treatment 16 min): −134.7
Whiteness Index 31 min ([4]; one-step, cumulative treatment 31 min): −125.2
Whiteness Index 61 min ([4]; one-step, cumulative treatment 61 min): −103.1
